Assay results from US7419960B2, “Hemiterpene glycosides with anti-platelet aggregation activities from Ilex pubescens” (Hong Kong Baptist University, priority 2005, dated 2008).
Marks after values point to notes of the source that are not given here.

Tested on: platelet-rich-plasma (PRP)
Assay: Shear-induced platelet aggregation (SIPA) in platelet-rich-plasma, determined by turbidity
Assay type: cell-based, Sprague-Dawley rats
Conditions: 10 μM; for Platelet aggregation rate (%) ( X ± SD): n=10, rat PRP, shear stress 15 Pa for 360 seconds, 37° C., PPP = 100%, pre-shear PRP = 0% aggregation, Control 54.400 ± 8.592; for anti-platelet aggregation activity compared with salvianolic acid B and aspirin: high shear stress-induced platelet activation and aggregation test
Protocol: Preparation of platelet-rich-plasma (PRP): Sprague-Dawley rats (350-450 g) were used as blood donors to collect anticoagulated blood. Collected blood samples were immediately transferred into a plastic tube anticoagulant ( 1/10 volume of 3.8% trisodium citrate, pH 7.4). The platelet-rich-plasma (PRP) was then prepared by centrifuging the blood at 300 rpm for 15 minutes. The platelet concentration was adjusted to a level of 5×10^5/μl by addition of homologous platelet-poor-plasma (PPP) obtained after further centrifugation of blood at 1500 rpm for 15 minutes. For getting sufficient amount of PRP, at least two rats have to be sacrificed each time to obtain a pooled PRP sample.
Shear-induced platelet aggregation (SIPA): Adjusted PRP was divided into different groups according to the experimental protocol, mixed with 10 μM of pubescenosides A, B, aspirin and Salvianolic acid B. HAAke Rheometer RS 600 (Thermo Haake Corp., Ltd., Germany) with sensor C60/0.5° was employed as shear generator. The rheometer has the benefit of controlling shear stress and with an accuracy of 1 μm by the automatic adjustment of the gap between cone and plate. The shear program for PRP is: preheating sample at 37° C., increasing stress level from 0 to 15 Pa in the duration of 30 seconds, and then maintaining the stress level at 15 Pa for 360 seconds. After shearing, PRP was transferred to a platelet aggregometer (Chrono-Log aggregometer, Model 560 CA, Chrono-Log Corp., U.S.A) and SIPA was determined by turbidity. Since platelet-poor-plasma (PPP) and the pre-shear PRP were used as the turbidity scales of 100% and 0% aggregation, respectively, the aggregative degree of post-shear PRP could be measured.

Row | SMILES | Platelet aggregation rate (%) ( X ± SD) | anti-platelet aggregation activity compared with salvianolic acid B and aspirin
1 | C=C(CO)C(CO[C@@H]1OC(CO)[C@@H](O)C(O)C1O)OC(=O)/C=C/c1ccc(O)c(O)c1 (stereo partly drawn) [Pubescenoside B, 4-hydroxy-2-caffeoyloxy-3-methylene-butane-1-O-β-D-glucopyranoside] | 27.300 ± 10.263*^□ % | much stronger
2 | C=C(COC(=O)/C=C/c1ccc(O)c(O)c1)C(O)CO[C@@H]1O[C@H](CO)[C@@H](O)[C@H](O)[C@H]1O (stereo partly drawn) [Pubescenoside A, 4-caffeoyloxy-2-hydroxy-3-methylene-butane-1-O-β-D-glucopyranoside] | 36.550 ± 7.697*^▪▴ % | much stronger
3 | O=C(/C=C/c1ccc(O)c2c1[C@H](C(=O)O[C@H](Cc1ccc(O)c(O)c1)C(=O)O)[C@@H](c1ccc(O)c(O)c1)O2)O[C@H](Cc1ccc(O)c(O)c1)C(=O)O [Salvianolic acid B, salvianolic acid B, reference compound] | 39.650 ± 8.577 % | 
4 | CC(=O)Oc1ccccc1C(=O)O [Aspirin, aspirin, reference compound] | 44.700 ± 4.668 % | 
